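Five concentrations, 48 hours, 96-well plates. TGI: concentration producing complete growth inhibition.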
Assays:
Experiment in all cases: growth of human tumour cells (NCI), 48 h
[1] = system: A549 NSCLC
[2] = system: ACHN renal
[3] = system: BT-549 breast
[4] = system: CAKI-1 renal
[5] = system: CCRF-CEM leukemia
[6] = system: COLO 205 colon
[7] = system: DU-145 prostate
[8] = system: EKVX NSCLC
[9] = system: HCC-2998 colon
[10] = system: HCT-116 colon
[11] = system: HOP-62 NSCLC
[12] = system: HOP-92 NSCLC
[13] = system: HS 578T breast
[14] = system: HT29 colon
[15] = system: IGROV1 ovarian
[16] = system: K-562 leukemia
[17] = system: KM12 colon
[18] = system: LOX IMVI melanoma
[19] = system: M14 melanoma
[20] = system: MALME-3M melanoma
[21] = system: MCF7 breast
[22] = system: MDA-MB-435
[23] = system: MDA-N
[24] = system: MOLT-4 leukemia
[25] = system: NCI-H226 lung
[26] = system: NCI-H23 lung
[27] = system: NCI-H460 lung
[28] = system: NCI-H522 lung
[29] = system: NCI/ADR-RES ovarian
[30] = system: OVCAR-3 ovarian
[31] = system: OVCAR-4 ovarian
[32] = system: OVCAR-5 ovarian
[33] = system: OVCAR-8 ovarian
[34] = system: PC-3 prostate
[35] = system: RPMI-8226 leukemia
[36] = system: RXF 393 renal
[37] = system: SF-268 CNS
[38] = system: SF-295 CNS
[39] = system: SF-539 CNS
[40] = system: SK-MEL-2 melanoma
[41] = system: SK-MEL-28 melanoma
[42] = system: SK-MEL-5 melanoma
[43] = system: SK-OV-3 ovarian
[44] = system: SN12C renal
[45] = system: SNB-19 CNS
[46] = system: SNB-75 CNS
[47] = system: SW-620 colon
[48] = system: T-47D breast
[49] = system: TK-10 renal
[50] = system: U251 CNS
[51] = system: UACC-257 melanoma
[52] = system: UACC-62 melanoma
[53] = system: UO-31 renal

Measured: TGI

CC1(C(=O)O)CCC(C(=O)O)C(C)(C)O1 (stereo not drawn)
> 100 µM: [1] | [2] | [3] | [4] | [5] | [6] | [7] | [8] | [9] | [10] | [11] | [12] | [13] | [14] | [15] | [16] | [17] | [18] | [19] | [20] | [21] | [22] | [23] | [24] | [25] | [26] | [27] | [28] | [29] | [30] | [31] | [32] | [33] | [34] | [35] | [36] | [37] | [38] | [39] | [40] | [41] | [42] | [43] | [44] | [45] | [46] | [47] | [48] | [49] | [50] | [51] | [52] | [53]

Reference: PubChem BioAssay (NCI)
